Measured values from US20240043420A1, “7-AZAINDOLE COMPOUNDS FOR INHIBITION OF BCR-ABL TYROSINE KINASES” (EnLiven Therapeutics, Inc., priority 2020, published 2024).

What was measured:
[1] = biological target: T1, ABL1 (Homo sapiens, UniProt P00519); experiment: Luminescence-based ABL kinase assay (ADP-Glo, 300 μM ATP); assay type: biochemical
T1 construct: purchased Carna Biosciences
Summary of the method: (§1)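 Buffer: 50 mM HEPES pH 7.5, 10 mM MgCl2, 1 mM EGTA, 2 mM DTT, 0.05% BSA. Compound preincubated 30 min at RT with kinase (3.325 nM in enzyme solution), then started with a Peptide 2 (6 μM) and ATP (1.2 mM) solution, both stock levels; 90 min at RT.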

[2] = test system: K562 cells; experiment: K562 cell proliferation assay (CellTiter-Glo); assay type: cell-based; details: Homo sapiens, K562, 72 h, CellTiter-Glo viability, read-out: Cell Line (IC50, nM) K562
Experimental: (§2) K562 and HL60 cells, cultured in Iscove's Modified Dulbecco's Media (IMDM) supplemented with 10% FBS, were harvested at 50-80% confluency and plated at 2,000 cells per well (K562) or 1,500 cells per well (HL60) in 384-well tissue culture plates. A subset of wells contained media only (low control, LC). Compounds were serially diluted in DMSO. 40 nL of compound or DMSO only (high control, HC) were added to each well using an Echo 550 liquid handler (Labcyte). The plates were placed in a 37° C. incubator with 5% CO2 for 72 hours. Cell viability was measured using a CellTiter-Glo luminescent cell viability assay (Promega), which allows for relative quantification of metabolically active cells by luminescence-based measurements of intracellular ATP concentrations. Briefly, plates were removed from the incubator and equilibrated for 15 minutes at room temperature prior to the addition of 40 μL of CellTiter-Glo reagent. Plates were then incubated for 30 minutes at room temperature. Luminescence was measured using an EnSpire plate reader (Perkin Elmer). As noted above, luminescence values from wells with DMSO only or media without cells were used as high and low controls (HC and LC), respectively. Normalized percent viability was calculated as follows: percent viability=100×(Lumsample−LumLC)/(LumHC−LumLC).

[3] = test system: HL60 cells; experiment: HL60 cell proliferation assay (CellTiter-Glo); assay type: cell-based; details: Homo sapiens, HL-60, 72 h, CellTiter-Glo viability, read-out: Cell Line (IC50, nM) HL60
Experimental: as §2

[4] = biological target: ABL1 (T315I) (Homo sapiens, UniProt P00519, T315I); experiment: Luminescence-based ABL kinase assay (ADP-Glo, 300 μM ATP), T315I mutant; assay type: biochemical
Summary of the method: as §1

Compound: COc1ccccc1-c1c[nH]c2nc(NC(=O)[C@H]3C[C@H]3CO)ccc12 [Compound 91, (1S,2R)-2-(hydroxymethyl)-N-[3-(2-methoxyphenyl)-1H-pyrrolo[2,3-b]pyridin-6-yl]cyclopropane-1-carboxamide]
- IC50 [1]: 166 nM
- IC50 [2]: 1080 nM
- IC50 [3]: > 10000 nM
- IC50 [4]: 24.6 nM

Compound: CNc1ncccc1-c1c[nH]c2nc(NC(=O)C3CC3)ccc12 [Compound 37, N-[3-[2-(methylamino)pyridin-3-yl]-1H-pyrrolo[2,3-b]pyridin-6-yl]cyclopropanecarboxamide]
- IC50 [1]: 46.1 nM
- IC50 [2]: 231 nM
- IC50 [3]: > 10000 nM
- IC50 [4]: 103 nM

Compound: COc1c(-c2c[nH]c3nc(NC(=O)[C@@H]4C[C@@H]4F)ccc23)ccc2cn[nH]c12 [Compound 81, (1S,2S)-2-fluoro-N-(3-(7-methoxy-1H-indazol-6-yl)-1H-pyrrolo[2,3-b]pyridin-6-yl)cyclopropane-1-carboxamide]
- IC50 [1]: 12.2 nM
- IC50 [2]: 96.2 nM
- IC50 [3]: > 10000 nM
- IC50 [4]: 12.9 nM

Compound: COc1c(-c2n[nH]c3nc(NC(=O)[C@@H]4C[C@@H]4F)ccc23)ccc2[nH]cnc12 [Compound 90, (1S,2S)-2-fluoro-N-[3-(4-methoxy-1H-1,3-benzodiazol-5-yl)-1H-pyrazolo[3,4-b]pyridin-6-yl]cyclopropane-1-carboxamide]
- IC50 [1]: 21.7 nM
- IC50 [2]: 1100 nM
- IC50 [3]: > 10000 nM
- IC50 [4]: 15 nM

Compound: O=C(Nc1ccc2c(-c3ccc4[nH]cnc4c3)c[nH]c2n1)C1CC1 [Compound 19, N-[3-(1H-1,3-benzodiazol-5-yl)-1H-pyrrolo[2,3-b]pyridin-6-yl]cyclopropanecarboxamide]
- IC50 [1]: 11.2 nM
- IC50 [2]: 147 nM
- IC50 [3]: 287 nM
- IC50 [4]: 4.57 nM

Compound: COc1ccccc1-c1c[nH]c2nc(NC(=O)NCCN3CCOCC3)ccc12 [Compound 43, 3-[3-(2-methoxyphenyl)-1H-pyrrolo[2,3-b]pyridin-6-yl]-1-[2-(morpholin-4-yl)ethyl]urea]
- IC50 [1]: 91.1 nM
- IC50 [2]: 779 nM
- IC50 [3]: > 10000 nM
- IC50 [4]: 15.6 nM

Compound: COc1ccccc1-c1c[nH]c2nc(NC(=O)[C@H]3C[C@H]3F)ccc12 [Compound 2, (1R,2R)-2-fluoro-N-(3-(2-methoxyphenyl)-1H-pyrrolo[2,3-b]pyridin-6-yl)cyclopropane-1-carboxamide]
- IC50 [1]: 22.2 nM
- IC50 [2]: 176 nM
- IC50 [3]: > 10000 nM
- IC50 [4]: 9.96 nM

Compound: O=C(Nc1ccc2c(-c3cccnc3OC3CC3)c[nH]c2n1)[C@@H]1C[C@@H]1F [Compound 69, (1S,2S)—N-[3-(2-cyclopropoxypyridin-3-yl)-1H-pyrrolo[2,3-b]pyridin-6-yl]-2-fluorocyclopropane-1-carboxamide]
- IC50 [1]: 27.6 nM
- IC50 [2]: 162 nM
- IC50 [3]: > 10000 nM
- IC50 [4]: 27.4 nM

Compound: O=C(Nc1ccc2c(-c3ccc4nccn4c3)c[nH]c2n1)[C@@H]1C[C@@H]1F [Compound 71, (1S,2S)-2-fluoro-N-(3-[imidazo[1,2-a]pyridin-6-yl]-1H-pyrrolo[2,3-b]pyridin-6-yl)cyclopropane-1-carboxamide]
- IC50 [1]: 48 nM
- IC50 [2]: 292 nM
- IC50 [3]: 334 nM
- IC50 [4]: 55.2 nM

Compound: COc1cccc(OC)c1-c1c[nH]c2nc(NC(=O)[C@@H]3C[C@@H]3F)ccc12 [Compound 118, (1S,2S)—N-[3-(2,6-dimethoxyphenyl)-1H-pyrrolo[2,3-b]pyridin-6-yl]-2-fluorocyclopropane-1-carboxamide]
- IC50 [1]: 3.73 nM
- IC50 [2]: 24.4 nM
- IC50 [3]: > 10000 nM
- IC50 [4]: 1.48 nM

Compound: COc1nccc(OC2CC2)c1-c1c[nH]c2nc(NC(=O)[C@@H]3C[C@H]3OCCN(C)C)ccc12 [Compound 253]
- IC50 [1]: 6.71 nM
- IC50 [2]: 30.8 nM
- IC50 [3]: > 10000 nM
- IC50 [4]: 8.81 nM

Compound: COc1cc2ncoc2cc1-c1c[nH]c2nc(NC(=O)[C@@H]3C[C@@H]3F)ccc12 [Compound 87, (1S,2S)-2-fluoro-N-(3-(5-methoxybenzo[d]oxazol-6-yl)-1H-pyrrolo[2,3-b]pyridin-6-yl)cyclopropane-1-carboxamide]
- IC50 [1]: 9.54 nM
- IC50 [2]: 94.1 nM
- IC50 [3]: > 10000 nM
- IC50 [4]: 6.59 nM

Compound: COc1ncnc(OC)c1-c1c[nH]c2nc(NC(=O)NCCN3CCNCC3)ccc12 [Compound 138, 3-[3-(4,6-dimethoxypyrimidin-5-yl)-1H-pyrrolo[2,3-b]pyridin-6-yl]-1-[2-(piperazin-1-yl)ethyl]urea]
- IC50 [1]: 51.2 nM
- IC50 [2]: 527 nM
- IC50 [3]: > 10000 nM
- IC50 [4]: 140 nM

Compound: COc1cc(F)ccc1-c1n[nH]c2nc(NC(=O)[C@@H]3C[C@@H]3F)ccc12 [Compound 99, (1S,2S)-2-fluoro-N-[3-(4-fluoro-2-methoxyphenyl)-1H-pyrazolo[3,4-b]pyridin-6-yl]cyclopropane-1-carboxamide]
- IC50 [1]: 14.9 nM
- IC50 [2]: 129 nM
- IC50 [3]: > 10000 nM
- IC50 [4]: 25.7 nM

Compound: O=C(Nc1ccc2c(-c3cccnc3OCC(F)(F)F)c[nH]c2n1)[C@@H]1C[C@@H]1F [Compound 126, (1S,2S)-2-fluoro-N-(3-(2-(2,2,2-trifluoroethoxy)pyridin-3-yl)-1H-pyrrolo[2,3-b]pyridin-6-yl)cyclopropane-1-carboxamide]
- IC50 [1]: 2580 nM
- IC50 [2]: 2010 nM
- IC50 [3]: > 10000 nM
- IC50 [4]: 3860 nM

Compound: COc1c(-c2c[nH]c3nc(NC(=O)[C@@H]4C[C@@H]4F)ccc23)ccn2ncnc12 [Compound 115, (1S,2S)-2-fluoro-N-(3-[8-methoxy-[1,2,4]triazolo[1,5-a]pyridin-7-yl]-1H-pyrrolo[2,3-b]pyridin-6-yl)cyclopropane-1-carboxamide]
- IC50 [1]: 124 nM
- IC50 [2]: 382 nM
- IC50 [3]: > 10000 nM
- IC50 [4]: 151 nM

Compound: COc1ccccc1-c1c[nH]c2nc(NC(=O)NCCN3CCNCC3)ccc12 [Compound 121, 3-[3-(2-methoxyphenyl)-1H-pyrrolo[2,3-b]pyridin-6-yl]-1-[2-(piperazin-1-yl)ethyl]urea]
- IC50 [1]: 31.8 nM
- IC50 [2]: 365 nM
- IC50 [3]: > 10000 nM
- IC50 [4]: 5.98 nM

Compound: COc1cccc(OC)c1-c1n[nH]c2nc(NC(=O)[C@@H]3C[C@@H]3F)ccc12 [Compound 78, (1S,2S)—N-(3-(2,6-dimethoxyphenyl)-1H-pyrazolo[3,4-b]pyridin-6-yl)-2-fluorocyclopropane-1-carboxamide]
- IC50 [1]: 17.8 nM
- IC50 [2]: 94.8 nM
- IC50 [3]: > 10000 nM
- IC50 [4]: 139 nM

Compound: O=C(Nc1ccc2c(-c3ccccc3Cl)c[nH]c2n1)C1CC1 [Compound 6, N-[3-(2-chlorophenyl)-1H-pyrrolo[2,3-b]pyridin-6-yl]cyclopropanecarboxamide]
- IC50 [1]: 123 nM
- IC50 [2]: 452 nM
- IC50 [3]: > 10000 nM
- IC50 [4]: 65.6 nM

Compound: O=C(Nc1ccc2c(-c3cccnc3OC(F)F)c[nH]c2n1)[C@@H]1C[C@@H]1F [Compound 70, (1S,2S)—N-[3-[2-(difluoromethoxy)pyridin-3-yl]-1H-pyrrolo[2,3-b]pyridin-6-yl]-2-fluorocyclopropane-1-carboxamide]
- IC50 [1]: 60.3 nM
- IC50 [2]: 312 nM
- IC50 [3]: > 10000 nM
- IC50 [4]: 140 nM

Compound: Cc1nc2cc(-c3c[nH]c4nc(NC(=O)C5CC5)ccc34)ccc2[nH]1 [Compound 29, N-(3-(2-methyl-1H-benzo[d]imidazol-5-yl)-1H-pyrrolo[2,3-b]pyridin-6-yl)cyclopropanecarboxamide]
- IC50 [1]: 41.8 nM
- IC50 [2]: 454 nM
- IC50 [3]: 470 nM
- IC50 [4]: 10.5 nM

Compound: O=C(Nc1ccc2c(-c3ccc4[nH]ncc4c3)c[nH]c2n1)C1CC1 [Compound 21, N-(3-(1H-indazol-5-yl)-1H-pyrrolo[2,3-b]pyridin-6-yl)cyclopropanecarboxamide]
- IC50 [1]: 94.8 nM
- IC50 [2]: 286 nM
- IC50 [3]: 1570 nM
- IC50 [4]: 8.74 nM

Compound: CCOc1cccc(F)c1-c1n[nH]c2nc(NC(=O)[C@@H]3C[C@@H]3F)ccc12 [Compound 67, (1S,2S)—N-(3-(2-ethoxy-6-fluorophenyl)-1H-pyrazolo[3,4-b]pyridin-6-yl)-2-fluorocyclopropane-1-carboxamide]
- IC50 [1]: 157 nM
- IC50 [2]: 1140 nM
- IC50 [3]: > 10000 nM
- IC50 [4]: 37.7 nM

Compound: COc1nccc(C)c1-c1n[nH]c2nc(NC(=O)[C@@H]3C[C@@H]3F)ccc12 [Compound 112, (1S,2S)-2-fluoro-N-[3-(2-methoxy-4-methylpyridin-3-yl)-1H-pyrazolo[3,4-b]pyridin-6-yl]cyclopropane-1-carboxamide]
- IC50 [1]: 271 nM
- IC50 [2]: 1860 nM
- IC50 [3]: > 10000 nM
- IC50 [4]: 157 nM

Compound: COc1cc2ncnn2cc1-c1c[nH]c2nc(NC(=O)[C@@H]3C[C@@H]3F)ccc12 [Compound 111, (1S,2S)-2-fluoro-N-(3-(7-methoxy-[1,2,4]triazolo[1,5-a]pyridin-6-yl)-1H-pyrrolo[2,3-b]pyridin-6-yl)cyclopropane-1-carboxamide]
- IC50 [1]: 14.3 nM
- IC50 [2]: 321 nM
- IC50 [3]: > 10000 nM
- IC50 [4]: 151 nM
